Data taken from the Deep4Chem optical property database.

Assay: solvent given as SMILES

CCCCCCN1C(=O)c2cccc3c(-c4ccc(-c5cc(-c6ccccc6)n(-c6ccccc6)n5)s4)ccc(c23)C1=O
absorption maximum (in ClCCl): 400 nm

N#Cc1cc(-n2c3ccccc3c3ccccc32)c(-n2c3ccccc3c3cc(Br)ccc32)cc1C#N
absorption maximum (in C1CCOC1): 366 nm

F[B-]1(F)n2c(c(-c3cccs3)c3c2-c2ccccc2CC3)C=C2C(c3cccs3)=C3CCc4ccccc4C3=[N+]21
absorption maximum (in CC#N): 636 nm

Cc1ccc(-n2c(-c3ccccc3O)nc(-c3ccccc3O)c2-c2ccccc2O)cc1
absorption maximum (in C1CCOC1): 307 nm | absorption maximum (in CC(C)O): 303 nm | absorption maximum (in CO): 303 nm | absorption maximum (in CS(C)=O): 306 nm | absorption maximum (in ClC(Cl)Cl): 310 nm | absorption maximum (in ClCCl): 309 nm

COc1ccc(-c2csc(/C(C#N)=C/c3c(Cl)cccc3Cl)n2)cc1
absorption maximum (in CC#N): 360 nm

Cc1ccc2nc(-c3cc(-c4nc5ccc(C)cc5[nH]4)cc(-c4nc5ccc(C)cc5[nH]4)c3)[nH]c2c1
absorption maximum (in CS(C)=O): 322.8 nm

c1ccc(-c2nc(-c3ccc(-c4nc(-c5ccccc5)c(-c5ccccc5)o4)cc3)oc2-c2ccccc2)cc1
absorption maximum (in C1COCCO1): 358 nm

O=c1oc2ccccc2c2c1c(=O)oc1cc(O)ccc12
absorption maximum (in CS(C)=O): 376 nm | absorption maximum (in ClCCl): 374 nm

CC1(C)C(/C=C/c2cc3ccc(O)cc3oc2=O)=[N+](CCCS(=O)(=O)[O-])c2ccccc21
absorption maximum (in CCO): 623 nm | absorption maximum (in CS(C)=O): 630 nm | absorption maximum (in O): 555 nm

ClP1(Cl)=NP(Cl)(Cl)=NP(Cl)(Oc2ccc3ccc4cccc5ccc2c3c45)=N1 (configuration not stated)
absorption maximum (in ClCCl): 343 nm

CCCCCCCN1C(=CC2=C([O-])C(=CC3=[N+](CCCCCCC)c4ccccc4C3(C)C)C2=C(C#N)C#N)C(C)(C)c2ccccc21
absorption maximum (in C1COCCO1): 689 nm | absorption maximum (in CCO): 673 nm | absorption maximum (in CN(C)C=O): 681 nm | absorption maximum (in ClC(Cl)Cl): 685 nm

CCCCC(CC)COc1cc(OCC(CC)CCCC)c2c#cc3ccc4sc5ccc(c#cc6cc(c#cc7ccc8sc9ccc(c#cc1c2)cc9c8c7)c(C(CCCC)OCCC)cc6C(CCCC)OCCC)cc5c4c3 (configuration not stated)
absorption maximum (in ClCCl): 333 nm

c1cc2c3cc1c1ccc4c(c1)c1cc(ccc1[C@]15OCCO[C@]41OCCO5)c1ccc4c(c1)c1cc(ccc1[C@]15OCCO[C@]41OCCO5)c1ccc(c3c1)[C@]13OCCO[C@]21OCCO3
absorption maximum (in Cc1ccccc1): 300 nm

N#Cc1c(-n2c3ccccc3c3ccccc32)nc(-n2c3ccccc3c3ccccc32)c(C#N)c1-c1ccccc1
absorption maximum (in c1cc(-c2cccc(-n3c4ccccc4c4ccccc43)c2)cc(-n2c3ccccc3c3ccccc32)c1): 374 nm

c1ccc(-c2nc(-c3ccc(N4c5ccccc5C(c5ccccc5)(c5ccccc5)c5ccccc54)cc3)cc(-c3ccc(N4c5ccccc5C(c5ccccc5)(c5ccccc5)c5ccccc54)cc3)n2)cc1
absorption maximum (in Cc1ccccc1): 373 nm

COC(=O)C1=C(C(=O)OC)C2(c3ccccc3-c3ccccc32)[C@@H](c2ccc([N+](=O)[O-])cc2)C=C2c3cc(OC)c(OC)cc3CCN21
absorption maximum (in ClCCl): 310 nm

CCC1=C(C2=C(C3=C(CC)S(=O)(=O)c4cc(-c5ccc(CO)cc5)ccc43)C(F)(F)C(F)(F)C2(F)F)c2ccc(-c3ccc(CO)cc3)cc2S1(=O)=O
absorption maximum (in C1COCCO1): 340 nm

NS(=O)(=O)c1ccc(N2N=C(c3ccc(O)cc3)CC2c2ccc([N+](=O)[O-])cc2)cc1 (configuration not stated)
absorption maximum (in C1CCOC1): 353 nm | absorption maximum (in C1COCCO1): 353 nm | absorption maximum (in CC#N): 352 nm | absorption maximum (in CC(C)O): 352 nm | absorption maximum (in CCO): 352 nm | absorption maximum (in CCOC(C)=O): 352 nm | absorption maximum (in CN(C)C=O): 355 nm | absorption maximum (in CO): 351 nm | absorption maximum (in CS(C)=O): 358 nm | absorption maximum (in O): 354 nm

Cc1cc(C#N)ccc1N1c2ccccc2C(c2ccccc2)(c2ccccc2)c2ccccc21
absorption maximum (in Cc1ccccc1): 349 nm

CC(=O)c1nc(-c2ccc(N(c3ccccc3)c3ccccc3)cc2)oc1C
absorption maximum (in CC#N): 332 nm | absorption maximum (in CCCCCC): 324 nm | absorption maximum (in CCO): 333 nm | absorption maximum (in CCOC(C)=O): 326 nm | absorption maximum (in CCOCC): 326 nm | absorption maximum (in ClCCl): 328 nm

CC(C)(C)c1ccc2c(c1)oc1nc3oc4ccc(-n5c6ccccc6c6ccccc65)cc4c3cc12
absorption maximum (in ClC(Cl)Cl): 350 nm

CC1(C)c2ccccc2-c2cc3c(cc21)N(c1ccc(-c2nc(-c4ccc(N5c6ccccc6C(c6ccccc6)(c6ccccc6)c6cc7c(cc65)C(C)(C)c5ccccc5-7)cc4)nc(-c4ccc(N5c6ccccc6C(c6ccccc6)(c6ccccc6)c6cc7c(cc65)C(C)(C)c5ccccc5-7)cc4)n2)cc1)c1ccccc1C3(c1ccccc1)c1ccccc1
absorption maximum (in Cc1ccccc1): 321 nm

Cc1ccc(/C=C(\c2ccccc2)c2nc3ccccc3s2)cc1
absorption maximum (in C1CCCCC1): 340 nm | absorption maximum (in CO): 345 nm

CCCCCCOc1ccc(N(c2ccc(OCCCCCC)cc2)c2ccc(-c3sc(-c4ccc(N(c5ccc(OCCCCCC)cc5)c5ccc(OCCCCCC)cc5)cc4)c4nc(-c5ccc(OC)cc5)c(-c5ccc(OC)cc5)nc34)cc2)cc1
absorption maximum (in ClCCl): 590 nm

CCCCCCc1ccc2c3c(ccc2c1)O[B-](F)(F)[N+](c1cc([N+]2=Cc4c(ccc5cc(CCCCCC)ccc45)O[B-]2(F)F)cc([N+]2=Cc4c(ccc5cc(CCCCCC)ccc45)O[B-]2(F)F)c1)=C3
absorption maximum (in C1CCOC1): 418 nm | absorption maximum (in CC#N): 419 nm | absorption maximum (in Cc1ccccc1): 433 nm | absorption maximum (in ClCCl): 428 nm

CCCCc1cc2c3c(c1)-c1ccccc1B(c1c(C)cc(C)cc1C)N3B(c1c(C)cc(C)cc1C)c1ccccc1-2
absorption maximum (in ClCCl): 366 nm

N#Cc1ccc(/C2=C3N=C(C(c4ccccc4)=C/3c3ccccc3)/C(c3ccc(C#N)cc3)=c3\[nH]/c(c(-c4ccccc4)c3-c3ccccc3)=C(/c3ccc(C#N)cc3)C3=N/C(=C(/c4ccc(C#N)cc4)c4[nH]c2c(-c2ccccc2)c4-c2ccccc2)C(c2ccccc2)=C3c2ccccc2)cc1
absorption maximum (in ClCCl): 704 nm

FC(F)(F)c1ccc(C2=Cc3ccccc3[Si]2(c2ccccc2)c2ccccc2)cc1
absorption maximum (in ClCCl): 336 nm

CSc1ccc(-c2nc3sc4ccccc4c3s2)cc1
absorption maximum (in CS(C)=O): 365 nm

Nc1n[n+]([O-])c2ccccc2[n+]1[O-]
absorption maximum (in CC#N): 477 nm | absorption maximum (in O): 457 nm

COC(=O)/C=C/c1sc(-c2ccc(N(C)C)cc2)cc1N
absorption maximum (in CC#N): 419 nm

Cc1cccc2nc3c(=O)n(C)c(=O)nc-3n(C)c12
absorption maximum (in CC#N): 439 nm

CC(=O)O[B-]1(OC(C)=O)OC(/C=C/c2cccc3ccccc23)=CC(/C=C/c2cccc3ccccc23)=[O+]1
absorption maximum (in C1CCOC1): 464 nm | absorption maximum (in CC#N): 468 nm | absorption maximum (in CC(C)=O): 464 nm | absorption maximum (in CS(C)=O): 478 nm | absorption maximum (in Cc1ccccc1): 468 nm | absorption maximum (in ClC(Cl)Cl): 474 nm | absorption maximum (in ClCCl): 472 nm

CCCCCCCCn1c(=O)c2cc3c(C#Cc4ccc(N(c5ccccc5)c5ccccc5)cc4)c4cc5c(=O)n(CCCCCCCC)c(=O)c5cc4c(C#Cc4ccc(N(c5ccccc5)c5ccccc5)cc4)c3cc2c1=O
absorption maximum (in ClC(Cl)Cl): 582 nm

CCN(CC)c1ccc2cc(/C=C(\C#N)c3nc4ccccc4o3)c(=O)oc2c1
absorption maximum (in C1COCCO1): 497 nm | absorption maximum (in CC#N): 510 nm | absorption maximum (in CCO): 516 nm | absorption maximum (in CCOC(C)=O): 506 nm | absorption maximum (in CN(C)C=O): 529 nm | absorption maximum (in CO): 509 nm | absorption maximum (in CS(C)=O): 519 nm | absorption maximum (in Cc1ccccc1): 500 nm | absorption maximum (in ClCCl): 511 nm

Cc1ccc(C2=C3C=CC(/C=C/c4ccccc4)=[N+]3[B-](F)(F)n3c(Cl)ccc32)cc1
absorption maximum (in C1CCCCC1): 569 nm | absorption maximum (in C1CCOC1): 568 nm | absorption maximum (in C1COCCO1): 569 nm | absorption maximum (in CCOC(C)=O): 565 nm | absorption maximum (in CO): 564 nm | absorption maximum (in Cc1ccccc1): 572 nm | absorption maximum (in ClC(Cl)Cl): 571 nm

COc1cccc(OC)c1-c1c2ccc(=[N+]3CCNCC3)cc-2oc2cc(N3CCNCC3)ccc12
absorption maximum (in CCO): 561 nm | absorption maximum (in O): 542 nm

Clc1nc(Nc2ccccc2)nc(Nc2ccc3c4cccc5cccc(c6cccc2c63)c54)n1
absorption maximum (in C1COCCO1): 444 nm | absorption maximum (in CC#N): 442 nm | absorption maximum (in CCCCOCCCC): 443 nm | absorption maximum (in CCOC(C)=O): 442 nm

COc1ccc(N(c2ccccc2)c2ccccc2)cc1
absorption maximum (in Cc1ccccc1): 299 nm

O=C1CC(c2ccc(C(F)(F)F)cc2)c2c(c3ccccc3c3nc4ccccc4nc23)O1 (configuration not stated)
absorption maximum (in ClC(Cl)Cl): 409 nm

CCN(C)c1ccc(C2=C3C(C)=CC(/C=C/c4ccc(OCC(=O)OC)cc4)=[N+]3[B-](F)(F)n3c(C)cc(C)c32)cc1
absorption maximum (in CO): 567 nm

CC(C)[Si]1(C(C)C)c2cc(C=C(C#N)C#N)ccc2-c2ccc(N(c3ccccc3)c3ccccc3)cc21
absorption maximum (in C1CCCCC1): 484 nm | absorption maximum (in CC#N): 461 nm | absorption maximum (in CCO): 467 nm | absorption maximum (in CCOCC): 467 nm | absorption maximum (in CS(C)=O): 466 nm | absorption maximum (in ClCCl): 481 nm | absorption maximum (in c1ccccc1): 477 nm

CCNc1cc2c(cc1C)C(c1ccccc1C(=O)O)=C1CCCC(/C=C/C3=[N+](C)c4ccc5ccccc5c4C3(C)C)=C1O2
absorption maximum (in CC#N): 716 nm | absorption maximum (in CCO): 708 nm | absorption maximum (in CO): 710 nm | absorption maximum (in ClC(Cl)Cl): 722 nm

O=C1NC(=O)C(c2c[nH]c3ccccc23)=C1c1c[nH]c2ccccc12
absorption maximum (in C1CCOC1): 450 nm | absorption maximum (in CC#N): 446 nm | absorption maximum (in CC(C)OC(C)C): 443 nm | absorption maximum (in CCCCOCCCC): 445 nm | absorption maximum (in CCO): 460 nm | absorption maximum (in CCOC(C)=O): 445 nm | absorption maximum (in CN(C)C=O): 454 nm | absorption maximum (in Cc1ccccc1): 447 nm | absorption maximum (in ClCCl): 448 nm

CC(C)c1cccc(C(C)C)c1-n1c(=O)c2cc3nc(-c4ccccc4)c4cc5c(=O)n(-c6c(C(C)C)cccc6C(C)C)c(=O)c6cc7nc(-c8ccccc8)c8cc(c1=O)c2c1c3c4c(c65)c7c81
absorption maximum (in ClC(Cl)Cl): 488 nm

CC(=O)Nc1cc2ccc3cccc4ccc(c1)c2c34
absorption maximum (in CC#N): 334 nm | absorption maximum (in CCCCOCCCC): 336 nm | absorption maximum (in CO): 334 nm

CC(C)(C)NC(=O)c1cccc2ccc3c4ccccc4c4ccccc4c3c12
absorption maximum (in ClCCl): 332 nm

N#Cc1cc(-c2ccc(N3c4ccccc4Oc4ccccc43)cc2)c(-c2ccc(N3c4ccccc4Oc4ccccc43)cc2)cc1C#N
absorption maximum (in Cc1ccccc1): 406 nm

CN1C(=CC2=C([O-])C(=O)C2=C(C#N)C#N)Sc2ccccc21
absorption maximum (in CCO): 481 nm
